{"source": "patent US7029840B2", "about": "(priority 2000, dated 2006)", "key": {"[1]": {"tested_on": "intact cells of N. gonorrhoeae", "assay_type": "cell-based, N. gonorrhoeae ATCC 19424", "conditions": "urine, room temperature; for average amplification MOTA values at day 0 versus day 6: 100 mM sodium citrate, sodium fluoride, sodium borate, 5 mM EDTA", "experimental": "(§1) The samples were spiked with cells of N. gonorrhoeae a final concentration 2500 cells/ml. Each sample was incubated for 14 days at room temperature. At specific time points (day 0, 6, and 14), 2.0-ml volumes of each sample (eight replicates) was centrifuged at 2000×g for 30 minutes at room temperature. The supernate was decanted and the cell pellet was resuspended with a 2.0-ml volume of BSA/PBS, and then centrifuged at 2000×g for 30 minutes at room temperature. Again, the supernatant was decanted and the cell pellet was resuspended with a 2.0-ml volume of CT/GC diluent. […] SDA was performed on the cell lysate as described in Example 1.\nForty-milliliter volumes of negative urine was prepared with 100 mM sodium citrate (final concentration); 5, 10, and 15% (v/v) sucrose (final concentration); 5, 10, and 15% (v/v) PVP (final concentration); 5, 10, and 15 mM magnesium chloride (final concentration); 10 and 100 mM sodium fluoride (final concentration); 10 and 100 mM sodium formate (final concentration); 10 and 100 mM sodium borate (final concentration); 0.5 and 5 mM EDTA (final concentration); 0.5 and 5 mM EGTA (final concentration); and without chemical additive. The samples were spiked with cells of N. gonorrhoeae at a final concentration of 2500 cells/ml. Each sample was incubated for 6 days at room temperature. At specific time points (day 0 and 6), the samples were processed by centrifugation at 2000×g as described in Example 2. […] SDA was performed on the cell lysate as described in Example 1."}, "[2]": {"tested_on": "intact cells of N. gonorrhoeae", "assay_type": "cell-based, N. gonorrhoeae ATCC 19424", "conditions": "for Average MOTA Value: urine; for average MOTA values for day 0 versus day 6: 100 mM sodium citrate, sodium fluoride, sodium borate, 5 mM EDTA, urine at 5, 25, 35, and 45° C.", "experimental": "as §1\nThe samples were spiked with cells of N. gonorrhoeae at a final concentration of 2500 cells/ml. Each sample was incubated for 6 days at 5, 25, 35, and 45° C. At specific time points (day 0 and 6), the samples were processed by centrifugation at 2000×g as described in Example 2. […] SDA was performed on the cell lysates as described in Example 1."}, "[3]": {"tested_on": "N. gonorrhoeae plasmid DNA", "assay": "Stability of N. gonorrhoeae plasmid DNA in urine, 3 days at room temperature (SDA, MOTA value)", "assay_type": "biochemical, Neisseria gonorrhoeae", "experimental": "The samples were incubated for 3 days at room temperature. […] SDA was performed on the isolated DNA as described in Example 1."}, "[4]": {"tested_on": "intact cells of N. gonorrhoeae", "assay_type": "cell-based, N. gonorrhoeae ATCC 19424", "conditions": "for Average MOTA Value: 10 mM potassium EDTA, urine", "experimental": "as §1\ni) Potassium EDTA: Seventy-milliliter volumes of pooled negative urine were prepared with 10 mM potassium EDTA (final concentration). The samples were spiked with cells of N. gonorrhoeae at a final concentration of 2000 cells/ml. Each sample was incubated for 14 days at 5, 25, 33, 45, and 60° C. At specific time points (day 0, 6 and 14), the samples were processed by centrifugation at 2000×g as described in Example 3. […] SDA was performed on the cell lysates as described in Example 1.\nii) DNA/RNA Protect™: Seventy-milliliter volumes of pooled negative urine were prepared with 10% (v/v) DNA/RNA Protect™ (final concentration). The samples were spiked with cells of N. gonorrhoeae at a final concentration of 2000 cells/ml. Each sample was incubated for 14 days at 5, 25, 33, 45, and 60° C. At specific time points (day 0, 6 and 14), the samples were processed by centrifugation at 2000×g as described in Example 3. […] SDA was performed on the cell lysates as described in Example 1."}, "[5]": {"tested_on": "N. gonorrhoeae plasmid DNA", "conditions": "for Average MOTA Value: 60 min room temperature after DNA spike; for protection of N. gonorrhoeae plasmid DNA from degradation in human urine by endogenous nucleases: sodium citrate at 10, 20, and 40 mM, EDTA at 10, 40, 100 mM (so in the source)", "procedure": "Twenty-milliliter volumes of negative pooled urine were prepared with 10, 40, and 100 mM sodium citrate (final concentration); 10, 20, and 40 mM EDTA (final concentration); and without chemical additive. In addition, a 20-ml volume of negative pooled urine was heated for 30 minutes (heated-treated urine). The samples were incubated for 60 minutes at room temperature. After the incubation step, the samples were spiked with N. gonorrhoeae plasmid DNA (2500 DNA copies/ml). The samples were incubated for 60 minutes at room temperature. After the incubation step, two-ml volumes from each sample (eight replicates) were heated for 30 minutes at 114° C. to denature the DNA.\nA 1-ml volume of the 8 replicates as described above was added to ferrosoferric oxide. A 100-ul volume of 6 M glycine HCl was added to each sample. The DNA-ferrosoferric oxide complexes were separated on a magnet and washed two times with a 900-ul volume of 1 mM glycine HCl to reduce the ionic strength and remove nonspecifically bound materials. The DNA was released from the ferrosoferric oxide with 480-ul volume of elution buffer (88.3 mM KOH, 177.8 mM bicine, 12.1% (v/v) glycerol, and 11.0% (v/v) DMSO [final concentration]).\nStrand Displacement Amplification (SDA) was performed according to the manufacturer's instructions (BDProbeTec™ET Chlamydia trachomatis and N. gonorrhoeae Amplified DNA Assay Package Insert L-000203 [November 1999]). A 150-ul volume of each sample was added into a priming microwell. The priming microwell plate was incubated for 20 minutes at room temperature, after which the plate was incubated at 72.5° C. The amplification microwell plate was incubated at 54° C. After 10 minutes, a 100-ul volume from each priming microwell was added into the corresponding amplification microwell. The amplification microwell plate was place in a BD ProbeTec ET instrument. Data was reported as MOTA value (metric other than acceleration)."}, "[6]": {"tested_on": "intact cells of N. gonorrhoeae", "assay": "Stability of cells of N. gonorrhoeae in urine with sodium citrate, 14 days at room temperature (SDA, MOTA value)", "assay_type": "cell-based, N. gonorrhoeae ATCC 19424", "conditions": "100 mM; for Average MOTA Value: urine", "experimental": "as §1"}}, "note": "Where two headings read alike, the source gives them in different places."}
{"molecule": "O=C(O)CN(CCN(CC(=O)O)CC(=O)O)CC(=O)O", "note": "[EDTA, Ethylenediaminetetraacetic acid]", "values": [{"measurement": "Average MOTA Value", "setting": "[1]; 0.5 mM, Day 0", "value": 35950}, {"measurement": "Average MOTA Value", "setting": "[1]; 0.5 mM, Day 6", "value": 650}, {"measurement": "Average MOTA Value", "setting": "[1]; 5 mM, Day 0", "value": 32392}, {"measurement": "Average MOTA Value", "setting": "[1]; 5 mM, Day 6", "value": 34445}, {"measurement": "average amplification MOTA values at day 0 versus day 6", "setting": "[1]", "value": "not significantly different"}, {"measurement": "Average MOTA Value", "setting": "[2]; 5 mM, 5° C., Day 0", "value": 50132}, {"measurement": "Average MOTA Value", "setting": "[2]; 5 mM, 5° C., Day 6", "value": 64610}, {"measurement": "Average MOTA Value", "setting": "[2]; 5 mM, 25° C., Day 0", "value": 54871}, {"measurement": "Average MOTA Value", "setting": "[2]; 5 mM, 25° C., Day 6", "value": 66009}, {"measurement": "Average MOTA Value", "setting": "[2]; 5 mM, 35° C., Day 0", "value": 57077}, {"measurement": "Average MOTA Value", "setting": "[2]; 5 mM, 35° C., Day 6", "value": 69291}, {"measurement": "Average MOTA Value", "setting": "[2]; 5 mM, 45° C., Day 0", "value": 62891}, {"measurement": "Average MOTA Value", "setting": "[2]; 5 mM, 45° C., Day 6", "value": 74667}, {"measurement": "average MOTA values for day 0 versus day 6", "setting": "[2]", "value": "no significant difference"}, {"measurement": "Average MOTA Value", "setting": "[3]; 10 mM, Day 0", "value": 32177}, {"measurement": "Average MOTA Value", "setting": "[3]; 10 mM, Day 3", "value": 30445}, {"measurement": "Average MOTA Value", "setting": "[3]; 20 mM, Day 0", "value": 34594}, {"measurement": "Average MOTA Value", "setting": "[3]; 20 mM, Day 3", "value": 31366}, {"measurement": "time for which stability of intact cells of N. gonorrhoeae in human urine was maintained", "setting": "[4]; 10 mM EDTA, 5, 27, 33, 45, and 60° C.", "value": "≥ 14", "unit": "days"}, {"measurement": "Average MOTA Value", "setting": "[4]; 5° C., Day 0", "value": 26448}, {"measurement": "Average MOTA Value", "setting": "[4]; 5° C., Day 6", "value": 35234}, {"measurement": "Average MOTA Value", "setting": "[4]; 5° C., Day 14", "value": 36205}, {"measurement": "Average MOTA Value", "setting": "[4]; 27° C., Day 0", "value": 26448}, {"measurement": "Average MOTA Value", "setting": "[4]; 27° C., Day 6", "value": 31619}, {"measurement": "Average MOTA Value", "setting": "[4]; 27° C., Day 14", "value": 36994}, {"measurement": "Average MOTA Value", "setting": "[4]; 33° C., Day 0", "value": 26448}, {"measurement": "Average MOTA Value", "setting": "[4]; 33° C., Day 6", "value": 34252}, {"measurement": "Average MOTA Value", "setting": "[4]; 33° C., Day 14", "value": 38183}, {"measurement": "Average MOTA Value", "setting": "[4]; 45° C., Day 0", "value": 26448}, {"measurement": "Average MOTA Value", "setting": "[4]; 45° C., Day 6", "value": 36132}, {"measurement": "Average MOTA Value", "setting": "[4]; 45° C., Day 14", "value": 41115}, {"measurement": "Average MOTA Value", "setting": "[4]; 60° C., Day 0", "value": 26448}, {"measurement": "Average MOTA Value", "setting": "[4]; 60° C., Day 6", "value": 32218}, {"measurement": "Average MOTA Value", "setting": "[4]; 60° C., Day 14", "value": 26259}, {"measurement": "Average MOTA Value", "setting": "[5]; 10 mM additive in human urine", "value": 16103}, {"measurement": "Average MOTA Value", "setting": "[5]; 20 mM additive in human urine", "value": 16178}, {"measurement": "Average MOTA Value", "setting": "[5]; 40 mM additive in human urine", "value": 20007}, {"measurement": "protection of N. gonorrhoeae plasmid DNA from degradation in human urine by endogenous nucleases", "setting": "[5]", "value": "protected N. gonorrhoeae plasmid DNA from degradation"}]}
{"molecule": "O=C([O-])CC(O)(CC(=O)[O-])C(=O)[O-].[Na+].[Na+].[Na+]", "note": "[sodium citrate, Sodium citrate, trisodium salt]", "values": [{"measurement": "time for which stability of intact cells of N. gonorrhoeae in human urine was maintained", "setting": "[6]", "value": "≥ 14", "unit": "days"}, {"measurement": "Average MOTA Value", "setting": "[6]; Day 0", "value": 30200}, {"measurement": "Average MOTA Value", "setting": "[6]; Day 6", "value": 25391}, {"measurement": "Average MOTA Value", "setting": "[6]; Day 10", "value": 27522}, {"measurement": "Average MOTA Value", "setting": "[6]; Day 14", "value": 20953}, {"measurement": "average amplification MOTA values at day 0 versus day 6", "setting": "[1]", "value": "not significantly different"}, {"measurement": "Average MOTA Value", "setting": "[1]; 100 mM, Day 0", "value": 27310}, {"measurement": "Average MOTA Value", "setting": "[1]; 100 mM, Day 6", "value": 26394}, {"measurement": "average MOTA values for day 0 versus day 6", "setting": "[2]", "value": "no significant difference"}, {"measurement": "Average MOTA Value", "setting": "[2]; 100 mM, 5° C., Day 0", "value": 56773}, {"measurement": "Average MOTA Value", "setting": "[2]; 100 mM, 5° C., Day 6", "value": 57701}, {"measurement": "Average MOTA Value", "setting": "[2]; 100 mM, 25° C., Day 0", "value": 59703}, {"measurement": "Average MOTA Value", "setting": "[2]; 100 mM, 25° C., Day 6", "value": 51791}, {"measurement": "Average MOTA Value", "setting": "[2]; 100 mM, 35° C., Day 0", "value": 54238}, {"measurement": "Average MOTA Value", "setting": "[2]; 100 mM, 35° C., Day 6", "value": 51468}, {"measurement": "Average MOTA Value", "setting": "[2]; 100 mM, 45° C., Day 0", "value": 59944}, {"measurement": "Average MOTA Value", "setting": "[2]; 100 mM, 45° C., Day 6", "value": 63623}, {"measurement": "Average MOTA Value", "setting": "[3]; 100 mM, Day 0", "value": 26852}, {"measurement": "Average MOTA Value", "setting": "[3]; 100 mM, Day 3", "value": 30978}, {"measurement": "Average MOTA Value", "setting": "[5]; 10 mM additive in human urine", "value": 6673}, {"measurement": "Average MOTA Value", "setting": "[5]; 40 mM additive in human urine", "value": 36684}, {"measurement": "Average MOTA Value", "setting": "[5]; 100 mM additive in human urine", "value": 24069}, {"measurement": "protection of N. gonorrhoeae plasmid DNA from degradation in human urine by endogenous nucleases", "setting": "[5]", "value": "protected N. gonorrhoeae plasmid DNA from degradation"}]}
